Experimental data taken from patent publication US20230416802A1, “SPECIFIC SUBSTRATES AND PRODUCTS OF HSD17B13 AS MARKERS OF LIVER DISEASE AND BIOMARKERS FOR LIVER DISEASE TREATMENT” (INIPHARM, INC., priority 2020, published 2023).

Target: T1, HSD17B13 enzyme (Homo sapiens, UniProt Q7Z5P4)
T1 construct: His; made in house; host or cells: E. coli
T1 sequence (Q7Z5P4 20-300): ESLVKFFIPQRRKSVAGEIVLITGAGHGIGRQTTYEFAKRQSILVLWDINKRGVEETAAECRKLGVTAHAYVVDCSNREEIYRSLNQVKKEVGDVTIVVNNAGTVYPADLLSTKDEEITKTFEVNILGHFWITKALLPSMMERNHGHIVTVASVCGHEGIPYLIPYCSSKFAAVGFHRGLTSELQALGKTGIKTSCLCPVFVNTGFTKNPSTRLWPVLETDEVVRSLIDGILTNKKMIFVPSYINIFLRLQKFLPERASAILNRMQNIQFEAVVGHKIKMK
Experiment: HSD17B13 activity assay using NADH fluorescence
Assay type: biochemical
Conditions: substrate at 3.3 μM; activity relative to positive control LTB3
Experimental: A fluorescence based HSD17B13 activity assay was used to monitor the fluorescence of NADH, which is generated from NAD+ during the dehydrogenation of the substrate LTB3 or other substrates. Reactions were performed in a 384-well plates (Greiner; #655076) in a 20 μl reaction volume containing the following reagents (final concentrations): 3 mM NAD^+ (Sigma; #N0623); 125 nM HSD17B13 enzyme (in-house E. coli expressed His-tagged, purified, soluble protein); 1 M potassium phosphate buffer, pH 7.4; 1% DMSO; and a range of substrate concentrations ([…]). Reactions proceeded for […] at 26.5° C. Generation of NADH was measured as the fluorescence signal (Excitation at 340 nm and Emission at 445 nm) at 3 hours minus the baseline fluorescence at t=0. Fluorescence signals in the absence of added substrate (negative control values), were subtracted from all values so that the results reflected substrate-dependent production of NADH. NADH standards were included to allow the conversion of relative fluorescence units into rates of enzyme activity. Ten concentrations of substrate were tested (in the range of 30 mM-2.5 nM), and two independent assessments were performed at each concentration. Activity was compared to the positive control, LTB3, at a concentration of […]. Results are reported as the ratio: [Activity of compound at 30 mM]/[Activity of LTB3 at […]].

With `CCCCCCCCCCCC(=O)SCCNC(=O)CCNC(=O)[C@H](O)C(C)(C)COP(=O)(O)OP(=O)(O)OC[C@H]1O[C@@H](n2cnc3c(N)ncnc32)[C@H](O)[C@@H]1OP(=O)(O)O` [Lauryl coenzyme A, S-[2-[3-[[(2R)-4-[[[(2R,3S,4R,5R)-5-(6-aminopurin-9-yl)-4-hydroxy-3-phosphonooxyoxolan-2-yl]methoxy-hydroxyphosphoryl]oxy-hydroxyphosphoryl]oxy-2-hydroxy-3,3-dimethylbutanoyl]amino]propanoylamino]ethyl] dodecanethioate] the “Relative oxidation (%) at 3.3 μM” value was 35 (AT 3.3 μM) %.

Same assay, conditions: substrate at 10 μM; activity relative to positive control LTB3

With `CC(C(=O)O)C(=O)SCCNC(=O)CCNC(=O)[C@H](O)C(C)(C)COP(=O)(O)OP(=O)(O)OC[C@H]1O[C@@H](n2cnc3c(N)ncnc32)[C@H](O)[C@@H]1OP(=O)(O)O` (stereo partly drawn) [Methyl malonyl coenzyme A, (9R)-1-[(2R,3S,4R,5R)-5-(6-Amino-9H-purin-9-yl)-4-hydroxy-3-(phosphonooxy)oxolan-2-yl]-3,5,9-trihydroxy-8,8,20-trimethyl-3,5,10,14,19-pentaoxo-2,4,6-trioxa-18-thia-11,15-diaza-3λ5,5λ5-diphosphahenicosan-21-oic acid] the “Relative oxidation (%) at 10 μM” value was 29 (at 10 μM) %.

Same assay, conditions: substrate at 30 μM; activity relative to positive control LTB3; NADH production by purified HSD17B13

First: CCCCCCCC[C@@H](O)/C=C/C=C\C=C\[C@@H](O)CCCC(=O)O [Leukotriene B3 (LTB3), 5S,12R-dihydroxy-6Z,8E,10E-eicosatrienoic acid]
Second: CCCCC[C@@H](O)/C=C/C=C\CCCCCCCCCC(=O)O [15 (R) HEDE]
The “Relative oxidation at 30 μM (%)” value of the first is higher: 100% for the first, 46% for the second.

First: CC[C@@H](O)/C=C/C=C\C[C@@H](O)/C=C/C=C/C=C\[C@@H](O)CCCC(=O)O [Resolvin E1, 5S,12R,18R-trihydroxy-6Z,8E,10E,14Z,16E-eicosapentaenoic acid]
Second: CC/C=C\C[C@H](O)/C=C/C=C\C=C\C=C\[C@@H](O)[C@@H](O)C/C=C\CCC(=O)O [Resolvin D1, 7S,8R,17S-trihydroxy-4Z,9E,11E,13Z,15E,19Z-docosahexaenoic acid]
The “Relative oxidation at 30 μM (%)” value of the first is lower: 45% for the first, 135% for the second.

First: CC/C=C\C[C@H](O)/C=C/C=C\C=C\[C@@H](O)C/C=C\C/C=C\CCC(=O)O [Protectin DX, 10(S),17(S)-dihydroxy-4Z,7Z,11E,13Z,15E,19Z-docosahexaenoic acid]
Second: CC/C=C\C/C=C\C[C@H](O)\C=C/C=C/C=C/[C@H](O)C/C=C\CCC(=O)O [Maresin 1, 7R,14S-dihydroxy-4Z,8E,10E,12Z,16Z,19Z-docosahexaenoic acid]
The “Relative oxidation at 30 μM (%)” value of the first is higher: 105% for the first, 22% for the second.

With `CCCCC/C=C\C[C@@H](O)/C=C/C=C\C/C=C\CCCC(=O)O` [12(R) HETE] the “Relative oxidation at 30 μM (%)” value was 60%.
